Laboratory results from ChEMBL document CHEMBL1201862, “PubChem BioAssay data set” (2004).
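These data come from cells grown in 96-well plates and exposed to compound for 48 hours at five concentrations. GI50: concentration for 50% inhibition of growth.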 The source made the active and inactive calls. Rule as the data show it: active = GI50 up to about 1.1 µM and inactive = higher.

Legend:
Experiment in all cases: NCI tumour cell line growth inhibition, 48 h
[1] = test system: SK-OV-3
[2] = test system: BT-549
[3] = test system: EKVX
[4] = test system: HCC 2998
[5] = test system: IGROV-1
[6] = test system: K562
[7] = test system: 786-0
[8] = test system: HT-29
[9] = test system: NCI-H226
[10] = test system: COLO 205
[11] = test system: MOLT-4
[12] = test system: UACC-257
[13] = test system: OVCAR-3
[14] = test system: SNB-75
[15] = test system: NCI-H460
[16] = test system: RPMI-8226
[17] = test system: ACHN
[18] = test system: KM12
[19] = test system: U-251
[20] = test system: LOX IMVI

SMILES | GI50 [1] | GI50 [2] | GI50 [3] | GI50 [4] | GI50 [5] | GI50 [6] | GI50 [7] | GI50 [8] | GI50 [9] | GI50 [10] | GI50 [11] | GI50 [12] | GI50 [13] | GI50 [14] | GI50 [15] | GI50 [16] | GI50 [17] | GI50 [18] | GI50 [19] | GI50 [20]
CC(=O)O[C@H]1[C@@H](N2CCCCC2)C[C@H]2[C@@H]3CC=C4C[C@@H](N5CCCC5)CC[C@]4(C)[C@H]3CC[C@@]21C | > 100 µM (inactive) | > 100 µM (inactive) | > 100 µM (inactive) | 14.3 µM (inactive) | > 100 µM (inactive) | 4.07 µM (inactive) | 36.7 µM (inactive) | 15.3 µM (inactive) | > 100 µM (inactive) | > 100 µM (inactive) | 44.5 µM (inactive) | 30.8 µM (inactive) | > 100 µM (inactive) | > 100 µM (inactive) | 91.6 µM (inactive) | 26.5 µM (inactive) | > 100 µM (inactive) | > 100 µM (inactive) | 69 µM (inactive) | 35.6 µM (inactive)
N#Cc1c(Cl)cc(C#N)n2c1nc1ccccc12 | 21.9 µM (inactive) | 6.12 µM (inactive) | 20.7 µM (inactive) | 21.2 µM (inactive) | 14.6 µM (inactive) | 3.03 µM (inactive) | 2.59 µM (inactive) | 6.87 µM (inactive) | 33.7 µM (inactive) | 4.4 µM (inactive) | 2.3 µM (inactive) | 14.9 µM (inactive) | 5.28 µM (inactive) | 19.2 µM (inactive) | 14.9 µM (inactive) | 4.14 µM (inactive) | 15.2 µM (inactive) | 6.98 µM (inactive) | 20.8 µM (inactive) | 2.5 µM (inactive)
CCOC(=O)C1CCCCN1C(=O)Cc1c[nH]c2ccccc12 (stereo not given) | > 100 µM (inactive) | 94.8 µM (inactive) | 59.2 µM (inactive) | 77.8 µM (inactive) | 57.7 µM (inactive) | 68.9 µM (inactive) | > 100 µM (inactive) | 72.9 µM (inactive) | > 100 µM (inactive) | 66.2 µM (inactive) | 27.4 µM (inactive) | 79.3 µM (inactive) | 52.6 µM (inactive) | 40 µM (inactive) | > 100 µM (inactive) | 20 µM (inactive) | 71.4 µM (inactive) | 41.3 µM (inactive) | 67.3 µM (inactive) | 59.4 µM (inactive)
O=C(Nn1c(-c2ccccc2)nc2ccccc2c1=O)c1ccc([N+](=O)[O-])cc1 | > 100 µM (inactive) | 55.7 µM (inactive) | > 100 µM (inactive) | > 100 µM (inactive) | > 100 µM (inactive) | > 100 µM (inactive) | > 100 µM (inactive) | > 100 µM (inactive) | 46.3 µM (inactive) | > 100 µM (inactive) | > 100 µM (inactive) | > 100 µM (inactive) | > 100 µM (inactive) | > 100 µM (inactive) | > 100 µM (inactive) | > 100 µM (inactive) | > 100 µM (inactive) | > 100 µM (inactive) | > 100 µM (inactive) | > 100 µM (inactive)
Nc1nc(Cl)c(N)c(NCC2(CO)CC(Cc3ccccc3)C2)n1 (stereo not given) | > 100 µM (inactive) | 42.5 µM (inactive) | 3.2 µM (inactive) | > 93.5 µM (inactive) | > 78.5 µM (inactive) | 0.218 µM (active) | > 91.4 µM (inactive) | 70.6 µM (inactive) | > 31.8 µM (inactive) | 34.9 µM (inactive) | 16.3 µM (inactive) | 0.127 µM (active) | 26.3 µM (inactive) | > 85.3 µM (inactive) | > 55.5 µM (inactive) | 2.41 µM (inactive) | 97.9 µM (inactive) | 35.7 µM (inactive) | 14.6 µM (inactive) | 2.42 µM (inactive)
COc1cccc(N2C(=O)C3CC(CC(C)(C)C)c4c([nH]c5ccccc45)C3C2=O)c1 (stereo not given) | > 10 µM (inactive) | 9.51 µM (inactive) | > 10 µM (inactive) | > 10 µM (inactive) | > 10 µM (inactive) | > 10 µM (inactive) | 3.8 µM (inactive) | > 10 µM (inactive) | 2.77 µM (inactive) | > 10 µM (inactive) | > 10 µM (inactive) | > 10 µM (inactive) | > 10 µM (inactive) | 1.84 µM (inactive) | 6.47 µM (inactive) | > 10 µM (inactive) | > 10 µM (inactive) | > 10 µM (inactive) | 7.91 µM (inactive) | 9.44 µM (inactive)
CC1OC(c2ccc3c(c2O)C(=O)C2=C(C3=O)C3(O)C(=O)CC(C)(O)CC3(O)C=C2)CC(O)C1O (stereo not given) | 41.3 µM (inactive) | 18.7 µM (inactive) | 16 µM (inactive) | 15.5 µM (inactive) | 13.4 µM (inactive) | 2.7 µM (inactive) | 16.8 µM (inactive) | 5.4 µM (inactive) | 19.8 µM (inactive) | 1.75 µM (inactive) | 3.81 µM (inactive) | 15 µM (inactive) | 5.35 µM (inactive) | 18.2 µM (inactive) | 24.2 µM (inactive) | 9.73 µM (inactive) | 13.6 µM (inactive) | 21.3 µM (inactive) | 16.7 µM (inactive) | 14 µM (inactive)
